Laboratory results reported in US9244074B2 (University of Hawaii, priority 2011, dated 2016).
*1 amine or outer side, *2 acyl side, *3 side chain or, on linkers, in order; H or OH if unused. Where a SMILES comes first, the peptide text is derived from it. Bridges are numbered along the chain shown (N, C = ends). Roman numbers before positions name the chains, in order. [ ]: non-standard residue; d: D form. Actinocin(9to1) = Cc1c2oc3c(C)ccc(C(=O)[*:1])c3nc-2c(C(=O)[*:2])c(N)c1=O; NMeV = CN[C@H](C(=O)O)C(C)C; Sar = CNCC(=O)O

Legend:
[1] = test system: human mesothelial (HM) cells; assay: HMGB1 localization in HM cells by immunofluorescence staining; format: cell-based; details: 6 hrs exposure; H2O2 100 μM, actinomycin D 0.1 μM
Method: After fixation and permeabilization, cells were incubated with HMGB1 antibody (BD Bioscience Pharmingen) and a fluorescein-conjugated secondary antibody (Chemicon, Temecula). Nuclei were stained with DAPI.

[2] = test system: macrophages; assay: TNF-α secretion by macrophages given culture medium from exposed HM; format: cell-based, human; details: concentrated HM culture medium added to macrophages
Method: Expression levels of HMGB1 and its receptors RAGE, TLR2 and TLR4 in a panel of 8 MM cell lines and 8 distinct primary HM cultures were determined Primary human mesothelial cells (HM) were obtained from pleural effusions of eight different patients, pathologically diagnosed free of malignancy at the Queen's Medical Center, Honolulu, Hi. […] HM were cultured in Dulbecco's Modified Eagle Medium (DMEM) (Mediatech Inc., Manassas, Va.) containing 20% fetal bovine serum (FBS) (Gibco, Carlsbad, Calif.) and penicillin-streptomycin (100 units/ml penicillin G and 100 μg/ml streptomycin sulfate) (GIBCO), and were used between second and fifth passages. THP-1 human monocytes (ATCC, Manassas, Va.) were differentiated into macrophages by phorbol 12-myristate 13-acetate (TPA). The pleural malignant mesothelioma (MM) cell lines were established from surgically resected human MM specimens and used comparatively in our studies. REN cells were provided by Dr. Steven Albelda (University of Pennsylvania, Philadelphia, Pa.), while all other cell lines used in this study were provided by Dr. Harvey I. Pass (NYU School of Medicine, New York, N.Y.). MM cells were maintained in DMEM containing 10% FBS. All cells were cultured at 37° C. in a humidified atmosphere with 5% CO2 and grown to approximately 80-90% confluency. […]
Next, it was determined whether the release of HMGB1 was linked to an inflammatory response. […]

SMILES	HMGB1 localization in HM cells [1]	macrophage secretion of TNF-α induced by culture medium from HM exposed to the substance [2]
OO [H2O2]	translocated from the nucleus into the cytosol	
Cc1c2oc3c(C)ccc(C(=O)N[C@@H]4C(=O)N[C@H](C(C)C)C(=O)N5CCC[C@H]5C(=O)N(C)CC(=O)N(C)[C@@H](C(C)C)C(=O)O[C@@H]4C)c3nc-2c(C(=O)N[C@@H]2C(=O)N[C@H](C(C)C)C(=O)N3CCC[C@H]3C(=O)N(C)CC(=O)N(C)[C@@H](C(C)C)C(=O)O[C@@H]2C)c(N)c1=O [actinomycin D] (I: T[dV]P[Sar][NMeV] / II: T[dV]P[Sar][NMeV]; ester I:1-I:C, II:1-II:C; linker I:N-II:N via Actinocin(9to1))	remained within the nucleus	did not induce TNF-α secretion
